pIC50: −log10 of the molar value. In brackets after ≈: the same amount, converted by molar mass. Several values for one entry are separate records, joined by “and”; a condition that tells them apart may be missing. Identical values can stand only once.
Key:
[1] = test system: Staphylococcus epidermitis; test: Bacterial growth inhibition screen in LB media (absorbance 595 nm), percent inhibition; conditions: for inhibition of growth at 10 µM / inhibition of growth at 100 µM: Staphylococcus, read-out: % Inhibition, S. epidermitis; for % Inhibition: S. epidermitis
[2] = biological target: T1, bacterial NAD synthetase enzyme (Bacillus subtilis, UniProt P08164); test: biochemical; type: biochemical
T1 sequence (P08164 2-272 limits assumed): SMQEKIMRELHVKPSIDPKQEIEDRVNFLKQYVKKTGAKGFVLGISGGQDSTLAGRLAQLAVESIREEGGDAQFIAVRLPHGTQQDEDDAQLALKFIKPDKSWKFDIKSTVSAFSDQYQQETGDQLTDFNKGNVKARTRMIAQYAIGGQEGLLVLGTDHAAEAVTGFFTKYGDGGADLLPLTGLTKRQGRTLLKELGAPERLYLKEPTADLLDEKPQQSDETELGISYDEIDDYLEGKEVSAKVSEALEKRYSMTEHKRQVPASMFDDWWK

[3] = test system: Staphylococcus epidermitis; test: Dose response of bacterial growth inhibition, MIC85; conditions: for MIC: Staphylococcus, read-out: MIC85; for MIC85: minimum inhibitory concentration to achieve 85% inhibition, S. epidermitis
[4] = compound at 0.2 mM (Table 312A)

SMILES | MIC85 [3] | % Inhibition ([1]; concentration screened 10 uM) | % Inhibition [2, 4] | other results
C[N+](C)(C)c1ccc(CC(=O)OCCCCn2ccc3cc(OCc4ccccc4)ccc32)cc1 [Compound 745] | – | – | – | inhibition of growth at 10 µM ([1]; concentration screened 10 uM): 95.1%; pIC50 [2]: 4.07; inhibition at 200 µM [2]: 85.4%; MIC [3]: 30 µM
c1ccc2c[n+](CCCCCc3cc4ccccc4[nH]3)ccc2c1 [Compound 500] | 30 µM | – | – | % Inhibition ([1]; concentration screened 100 uM): 99.14%; % Inhibition ([2]; compound at 0.1 mM (Table 314)): 18.25%
COc1ccc2[nH]c(CCC[n+]3ccccc3)cc2c1 [Compound 372] | 30 µM | 67.34% | – | –
COC(=O)c1cc2cc(OC)ccc2n1CCCCCCCCC[n+]1ccccc1 [Compound 246] | 30 µM | 90.26% | 92.19% | –
COC(=O)c1cc2cc(OCc3ccccc3)ccc2n1CCC[n+]1ccccc1 [Compound 227] | 30 µM | 96.46% | 91.19% | –
COC(=O)C=Cc1cn(CCCCCCC[n+]2ccccc2)c2ccccc12 [Compound 261] | 30 µM | 92.51% | – | –
Fc1cc(F)c2[nH]c(CCCCC[n+]3ccc4ccccc4c3)cc2c1 [Compound 518] | 30 µM | – | – | % Inhibition ([1]; concentration screened 100 uM): 100.00%; % Inhibition ([2]; compound at 0.1 mM (Table 314)): 30.39%
COc1ccc2c(ccn2CCCCCOC(=O)c2cc3ccccc3[n+](C)c2)c1 [Compound 821] | 30 µM | 95.02% | – | –
C[N+](C)(C)c1cccc(C(=O)OCCCCCCCCn2ccc3cc(OCc4ccccc4)ccc32)c1 [Compound 809] | 10 µM | 99.81% | – | –
COC(=O)c1cc2cc(OCc3ccccc3)ccc2n1CCCCC[n+]1ccccc1 [Compound 228] | – | – | – | inhibition of growth at 100 µM ([1]; concentration screened 100 uM): 96.8%; pIC50 [2]: 4.22; inhibition at 100 µM [2]: 95.1%; MIC [3]: 10 µM
COc1ccc2c(ccn2CCCCCCCCOC(=O)c2cc3ccccc3[n+](C)c2)c1 [Compound 824] | 3.7 µM | 97.67% | – | –
CCCCc1ccc2[nH]c(CCCCCC[n+]3ccccc3)cc2c1 [Compound 315] | – | – | – | inhibition of growth at 100 µM ([1]; concentration screened 100 uM): 100%; pIC50 [2]: 4.00; inhibition at 100 µM [2]: 77.2%; MIC [3]: 30 µM
COC(=O)c1ccc[n+](CCCCCCCCCn2ccc3cc([N+](=O)[O-])ccc32)c1 [Compound 14] | 10 µM | 98.58% and 96.19% | 78.85% | –
C[n+]1cc(C(=O)OCCCCCn2ccc3cc(OCc4ccccc4)ccc32)cc2ccccc21 [Compound 826] | 3.7 µM | 92.57% | – | –
COC(=O)c1ccc[n+](CCCCCCCCn2ccc3cc([N+](=O)[O-])ccc32)c1 [Compound 13] | – | – | – | inhibition of growth at 10 µM ([1]; concentration screened 10 uM): 98.5%; pIC50 [2]: 4.30; inhibition at 200 µM [2]: 80.8%; MIC [3]: 30 µM
COC(=O)c1ccc2c(ccn2CCCCCCCCC[n+]2cc(C(=O)OC)cc3ccccc32)c1 [Compound 174] | – | – | – | inhibition of growth at 10 µM ([1]; concentration screened 10 uM): 98.7%; pIC50 [2]: 4.40; MIC [3]: 10 µM
CN(C)c1cccc(C(=O)OCCCCCCCCn2ccc3cc([N+](=O)[O-])ccc32)c1 [Compound 840] | 10 µM (≈ 4.38 µg/mL) | 98.77% | – | –
O=C(OCCCCCCCCn1ccc2cc([N+](=O)[O-])ccc21)c1cnc2ccccc2c1 [Compound 834] | 3.7 µM (≈ 1.65 µg/mL) | 98.13% | – | –
CN(C)c1ccc(CC(=O)OCCCCCCCCn2ccc3cc([N+](=O)[O-])ccc32)cc1 [Compound 852] | 30 µM (≈ 13.5 µg/mL) | 98.58% | – | –
O=C(OCCCCCCCCCn1ccc2cc([N+](=O)[O-])ccc21)c1cnc2ccccc2c1 [Compound 835] | 3.7 µM (≈ 1.7 µg/mL) | 99.03% | – | –
CN(C)c1cccc(C(=O)OCCCCCCCn2ccc3cc([N+](=O)[O-])ccc32)c1 [Compound 839] | 30 µM (≈ 12.7 µg/mL) | 99.35% | – | –
C[N+](C)(C)c1cccc(C(=O)OCCCCCCCn2ccc3cc(OCc4ccccc4)ccc32)c1 [Compound 808] | 30 µM | 98.06% | – | –
CN(C)c1ccc(CC(=O)OCCCCCCCn2ccc3cc([N+](=O)[O-])ccc32)cc1 [Compound 851] | 30 µM (≈ 13.1 µg/mL) | 98.90% | – | –

SMILES | MIC85 [3] | % Inhibition ([1]; concentration screened 10 uM) | % Inhibition [2, 4] | other results
O=C(OCCCCCCCn1ccc2cc([N+](=O)[O-])ccc21)c1cnc2ccccc2c1 [Compound 833] | 10 µM (≈ 4.31 µg/mL) | 98.00% | – | –
C[N+](C)(C)c1cccc(C(=O)OCCCCCCn2ccc3cc(OCc4ccccc4)ccc32)c1 [Compound 807] | 10 µM | 97.22% | – | –
CN(C)c1cccc(C(=O)OCCCCCCCCCn2ccc3cc([N+](=O)[O-])ccc32)c1 [Compound 841] | 10 µM (≈ 4.52 µg/mL) | 98.90% | – | –
c1ccc(-c2ccc3[nH]c(CCCCC[n+]4cccc5ccccc54)cc3c2)cc1 [Compound 434] | – | 5.64% | 5.36% | –
C[n+]1cc(C(=O)OCCCCCCn2ccc3cc(OCc4ccccc4)ccc32)cc2ccccc21 [Compound 827] | 3.7 µM | 95.86% | – | –
FC(F)(F)c1ccc2[nH]c(CCCC[n+]3ccccc3)cc2c1 [Compound 361] | – | 5.57% | – | % Inhibition ([2]; compound at 0.1 mM (Table 314)): 16.08%
O=C(OCCCCCCCCc1cc2cc(Oc3ccccc3)ccc2[nH]1)C(c1ccccc1)c1ccccc1 [Compound 659] | – | – | 25.47% | % Inhibition ([1]; concentration screened 100 uM): 20.41%
c1ccc(-c2ccc3[nH]c(CCCCCC[n+]4ccccc4)cc3c2)cc1 [Compound 327] | – | – | – | % Inhibition ([1]; concentration screened 100 uM): 100.00%; % Inhibition ([2]; compound at 0.1 mM (Table 314)): 55.31%
COc1ccc2c(ccn2CCCCOC(=O)Cc2ccc([N+](C)(C)C)cc2)c1 [Compound 740] | – | 5.17% | 7.23% | –
COc1ccc2c(ccn2CCCCCCCCOC(=O)c2cccc([N+](C)(C)C)c2)c1 [Compound 804] | 30 µM | 97.29% | – | –
O=[N+]([O-])c1ccc2[nH]c(CCCC[n+]3cccc4ccccc43)cc2c1 [Compound 439] | – | 30.57% | – | % Inhibition ([2]; compound at 0.1 mM (Table 314)): 2.57%
COc1ccc2[nH]c(CCCC[n+]3ccccc3)cc2c1 [Compound 373] | – | 1.53% | 14.13% | % Inhibition ([2]; compound at 0.1 mM (Table 314)): 7.72%
CN(C)c1cccc(C(=O)OCCCCCCCCc2cc3cc(Oc4ccccc4)ccc3[nH]2)c1 [Compound 617] | – | – | 2.02% | % Inhibition ([1]; concentration screened 100 uM): 19.54%
CC(C)c1ccc2[nH]c(CCCCCC[n+]3ccc4ccccc4c3)cc2c1 [Compound 537] | – | 5.43% | 10.69% | –
O=[N+]([O-])c1cc([N+](=O)[O-])c2[nH]c(CCCCCC[n+]3ccccc3)cc2c1 [Compound 309] | – | – | – | % Inhibition ([1]; concentration screened 100 uM): 99.07%; % Inhibition ([2]; compound at 0.1 mM (Table 314)): 41.47%
O=[N+]([O-])c1cc([N+](=O)[O-])c2[nH]c(CCCCC[n+]3ccc4ccccc4c3)cc2c1 [Compound 524] | – | – | 30.81% | % Inhibition ([1]; concentration screened 100 uM): 99.57%
O=[N+]([O-])c1ccc2[nH]c(CCCCCCCC[n+]3cccc4ccccc43)cc2c1 [Compound 443] | – | 7.66% | 5.51% | –
COc1ccc2c(ccn2CCCCCCCOC(=O)c2cc3ccccc3[n+](C)c2)c1 [Compound 823] | 10 µM | 97.03% | – | –
c1ccc(Oc2ccc3[nH]c(CCCCC[n+]4cccc5ccccc54)cc3c2)cc1 [Compound 458] | – | 22.77% | 15.72% | –
c1ccc(Oc2ccc3[nH]c(CCCCCC[n+]4ccccc4)cc3c2)cc1 [Compound 351] | – | – | 65.08% | % Inhibition ([1]; concentration screened 100 uM): 99.57%
O=C(c1ccccc1)c1ccc2[nH]c(CCCCCCCC[n+]3ccccc3)cc2c1 [Compound 359] | – | – | 35.55% | % Inhibition ([1]; concentration screened 100 uM): 1.01%
c1ccc(C(c2ccccc2)(c2ccccc2)c2ccc3[nH]c(CCCCC[n+]4ccccc4)cc3c2)cc1 [Compound 338] | – | 1.67% | – | % Inhibition ([2]; compound at 0.1 mM (Table 314)): 27.28%

Source: US6727237B2, “Inhibitors of bacterial NAD synthetase” (priority 1998, dated 2004)
